Reference: PubChem BioAssay AID330 (DTP/NCI, 2004)
Toxic doses and inconclusive results are not listed.

System: P388 leukemia ip, CD2F1 mice, survival T/C
Assay: NCI In Vivo Anticancer Drug Screen. Data for tumor model P388 Leukemia (intraperitoneal) in CD2F1 (CDF1) mice
Conditions: endpoint: median survival time, higher = longer survival
Summary of the method: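 Mice carrying the transplanted tumor received test compound or vehicle. Survival was recorded in each group, and the value is the treated-group measurement divided by that of the vehicle-treated control group.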

[1] = dose: 50.0 mg/kg/injection, schedule: Q01DX009 (ip), vehicle: saline with Tween-80
[2] = dose: 100.0 mg/kg/injection, schedule: Q01DX009 (ip), vehicle: saline with Tween-80
[3] = dose: 100.0 mg/kg/injection, schedule: Q04DX003 (ip), vehicle: saline with Tween-80
[4] = dose: 50.0 mg/kg/injection, schedule: Q01DX005 (ip), vehicle: saline with Tween-80
[5] = dose: 100.0 mg/kg/injection, schedule: Q01DX005 (ip), vehicle: saline with Tween-80
[6] = dose: 50.0 mg/kg/injection, schedule: Q01DX005 (ip), vehicle: Klucel (hydroxypropylcellulose) (HPC)
[7] = dose: 50.0 mg/kg/injection, schedule: Q01DX009 (ip), vehicle: Klucel (hydroxypropylcellulose) (HPC)
[8] = dose: 100.0 mg/kg/injection, schedule: Q01DX009 (ip), vehicle: Klucel (hydroxypropylcellulose) (HPC)
[9] = dose: 200.0 mg/kg/injection, schedule: Q01DX009 (ip), vehicle: Klucel (hydroxypropylcellulose) (HPC)
[10] = dose: 200.0 mg/kg/injection, schedule: Q01DX005 (ip), vehicle: Klucel (hydroxypropylcellulose) (HPC)

Q: With CC1(NC(=O)N(CCCl)N=O)CCCC1 as the molecule, how does the T/C (dose: 25.0 mg/kg/injection, schedule: Q01DX009 (ip), vehicle: saline with Tween-80) read?
A: 104 % of control

Q: What about the T/C [1] of the same molecule?
A: 104 % of control

Q: What about the T/C (dose: 50.0 mg/kg/injection, schedule: Q04DX003 (ip), vehicle: saline with Tween-80) of the same molecule?
A: 100 % of control

Q: And the T/C [2]?
A: 109 % of control

Q: And the T/C [3]?
A: 100 % of control

Q: Which T/C [4] does the source give for C[C@@H]1C[C@@H]2c3cccc4c3c(cn4C)C[C@H]2N(C)C1 here?
A: 104 % of control

Q: What about the T/C [5] of the same molecule?
A: 107 % of control

Q: What about the T/C (dose: 200.0 mg/kg/injection, schedule: Q01DX005 (ip), vehicle: saline with Tween-80) of the same molecule?
A: 104 % of control

Q: For CCCCC/C(C=O)=C\c1ccccc1, which T/C [3] is on record?
A: 118 % of control

Q: What about the T/C (dose: 200.0 mg/kg/injection, schedule: Q04DX003 (ip), vehicle: saline with Tween-80) of the same molecule?
A: 100 % of control

Q: What about the T/C (dose: 400.0 mg/kg/injection, schedule: Q04DX003 (ip), vehicle: saline with Tween-80) of the same molecule?
A: 109 % of control

Q: Which results are given for CC(=O)N1N=C(c2ccc(OCC(O)CN3CCN(CC(O)COc4ccc(C5=NN(C(C)=O)C(c6ccccc6)C5)cc4)CC3)cc2)CC1c1ccccc1 (stereo not given)?
A: T/C [4]: 100 % of control; T/C [5]: 86 % of control

Q: How did the T/C (dose: 12.5 mg/kg/injection, schedule: Q01DX001 (ip), vehicle: Klucel (hydroxypropylcellulose) (HPC)) turn out when Cc1oc2c(C)c3oc(=O)cc(C)c3cc2c1CN was run?
A: 111 % of control

Q: What about the T/C (dose: 25.0 mg/kg/injection, schedule: Q01DX001 (ip), vehicle: Klucel (hydroxypropylcellulose) (HPC)) of the same molecule?
A: 96 % of control

Q: For COC(=O)C1C/C=C\C=C/N(C)C1=O (stereo not given), which T/C (dose: 100.0 mg/kg/injection, schedule: Q04DX002 (ip), vehicle: saline with Tween-80) is on record?
A: 102 % of control

Q: And the T/C (dose: 200.0 mg/kg/injection, schedule: Q04DX002 (ip), vehicle: saline with Tween-80)?
A: 101 % of control

Q: And the T/C (dose: 400.0 mg/kg/injection, schedule: Q04DX002 (ip), vehicle: saline with Tween-80)?
A: 101 % of control

Q: What does the source list for Nc1ccc(Cl)cn1?
A: T/C [1]: 90 % of control; T/C [2]: 99 % of control; T/C (dose: 200.0 mg/kg/injection, schedule: Q01DX009 (ip), vehicle: saline with Tween-80): 99 % of control

Q: For C[N+](C)(C)CCC[n+]1ccc(CCn2ccc3ccccc32)cc1, which T/C (dose: 25.0 mg/kg/injection, schedule: Q01DX001 (ip), vehicle: saline) is on record?
A: 93 % of control

Q: And the T/C (dose: 50.0 mg/kg/injection, schedule: Q01DX001 (ip), vehicle: saline)?
A: 92 % of control

Q: What about the T/C (dose: 100.0 mg/kg/injection, schedule: Q01DX001 (ip), vehicle: saline) of the same molecule?
A: 102 % of control

Q: How did the T/C [6] turn out when COc1ccc2c(ccc3oc([N+](=O)[O-])cc32)c1 was run?
A: 116 % of control

Q: Which results are given for O=S1(=O)CCN(C2CCS(=O)(=O)C2)CC1 (stereo not given)?
A: T/C [7]: 90 % of control; T/C [8]: 99 % of control; T/C [9]: 90 % of control

Q: How did the T/C (dose: 100.0 mg/kg/injection, schedule: Q01DX001 (ip), vehicle: Klucel (hydroxypropylcellulose) (HPC)) turn out when COc1cc2c(OC)c(c1)CCC1=CC(=O)C(=CC1=O)CC2 was run?
A: 99 % of control

Q: What about the T/C (dose: 200.0 mg/kg/injection, schedule: Q01DX001 (ip), vehicle: Klucel (hydroxypropylcellulose) (HPC)) of the same molecule?
A: 96 % of control

Q: With Cc1[nH]c(=O)[nH]c(=O)c1/C=C/C(=O)O as the molecule, how does the T/C (dose: 25.0 mg/kg/injection, schedule: Q01DX009 (ip), vehicle: Klucel (hydroxypropylcellulose) (HPC)) read?
A: 100 % of control

Q: And the T/C [7]?
A: 100 % of control

Q: And the T/C [8]?
A: 102 % of control

Q: What about the T/C [9] of the same molecule?
A: 102 % of control

Q: Which T/C (dose: 12.5 mg/kg/injection, schedule: Q04DX002 (ip), vehicle: saline) does the source give for CC(c1ccccc1)C1CCN(C)CC1 (stereo not given) here?
A: 99 % of control

Q: What about the T/C (dose: 25.0 mg/kg/injection, schedule: Q04DX002 (ip), vehicle: saline) of the same molecule?
A: 100 % of control

Q: How did the T/C (dose: 25.0 mg/kg/injection, schedule: Q01DX005 (ip), vehicle: Klucel (hydroxypropylcellulose) (HPC)) turn out when OC(C1=CCCCC1)(c1ccccc1)c1ccccc1 was run?
A: 98 % of control

Q: And the T/C [6]?
A: 100 % of control

Q: What about the T/C (dose: 100.0 mg/kg/injection, schedule: Q01DX005 (ip), vehicle: Klucel (hydroxypropylcellulose) (HPC)) of the same molecule?
A: 90 % of control

Q: And the T/C [10]?
A: 91 % of control

Q: Which results are given for Fc1ccc(C(Nc2nncs2)Nc2nncs2)cc1?
A: T/C [6]: 111 % of control; T/C [10]: 152 % of control

Q: What does the source list for C[C@@]12CCCC[C@@H]1N(CCN1CCCCC1)c1ccccc12?
A: T/C (dose: 60.0 mg/kg/injection, schedule: Q01DX005 (ip), vehicle: saline with Tween-80): 95 % of control; T/C (dose: 120.0 mg/kg/injection, schedule: Q01DX005 (ip), vehicle: saline with Tween-80): 105 % of control; T/C (dose: 240.0 mg/kg/injection, schedule: Q01DX005 (ip), vehicle: saline with Tween-80): 98 % of control
